According to PMC9959553, “Promising Antifungal Molecules against Mucormycosis Agents Identified from Pandemic Response Box®: In Vitro and In Silico Analyses” (Journal of Fungi, 2023):
≈ marks a conversion by molar mass, not a printed value. Where “and” joins values, the source holds several entries; their conditions need not be identical. Equal values may be shown once.

How the values were obtained:
[1] = test system: S. brasiliensis; parameters: method as in PMID 36294569; details: cited from earlier work
[2] = test system: C. auris; details: cited from earlier work
[3] = test system: S. schenckii; parameters: method as in PMID 36294569; details: cited from earlier work
[4] = test system: R. stolonifer; assay: Antifungal susceptibility testing (broth microdilution, MIC and MFC); assay type: cell-based, Rhizopus stolonifer; details: for Selectivity Index (SI), Planktonic Cell: R. stolonifer, from CC50 and MIC50 of planktonic cells; for MIC50 / MFC: Rhizopus stolonifer, 48 h; for MIC50: lowest concentration that inhibits 50% of fungal growth; for MFC: subculture in drug-free medium
Description: (§1) The susceptibility of the Rhizopus species to MMV396785 (alexidine), MMV1580844, MMV642550 and MMV019724 was determined using the broth microdilution method, according to EUCAST protocols, with modifications. Posaconazole and amphotericin B were also used as reference antifungal drugs because they are commonly used for the treatment of mucormycosis. […] A standardized suspension of conidia (2 × 10^5/mL) was added to the wells and incubated for 48 h at 37 °C, in a 5% CO2 atmosphere. Fungal growth was analyzed via spectrophotometry readings at 600 nm and cell viability was assessed using the XTT reduction assay. Minimum inhibitory concentration (MIC) of each compound was defined as the lowest concentration that inhibits 50% of fungal growth, because these fungi are highly resistant to antifungal drugs and a reduction in half of their growth is relevant. […] MFC values were defined as the lowest drug concentration able to arrest fungal growth.

[5] = test system: A549 cell line; parameters: method as in PMID 32560115; details: cited from earlier work
[6] = test system: R. oryzae preformed biofilm; assay: Preformed biofilm assay; assay type: cell-based, Rhizopus oryzae; details: for Selectivity Index (SI), Preformed Biofilm: R. oryzae, based on biofilm viability parameter
Description: (§2) For the preformed biofilm assay, cells were cultured as described above in the absence of the compounds. […] An additional incubation of 24 h at 37 °C was performed to evaluate the anti-biofilm activity. Evaluation of both biofilm formation and preformed biofilms was performed using three parameters as previously described. Crystal violet, safranin and XTT assays were used to analyze the overall biomass, extracellular matrix and metabolic activity, respectively.

[7] = test system: Cryptococcus species; details: cited from earlier work
[8] = test system: R. oryzae; assay: Antifungal susceptibility testing (broth microdilution, MIC and MFC); assay type: cell-based, Rhizopus oryzae; details: for Selectivity Index (SI), Planktonic Cell: R. oryzae, from CC50 and MIC50 of planktonic cells; for MIC50 / MFC: Rhizopus arrhizus, 48 h; for MIC50: lowest concentration that inhibits 50% of fungal growth; for MFC: subculture in drug-free medium
Description: as §1

[9] = test system: R. oryzae; assay: Antifungal drug synergy assay, Bliss independence model; assay type: cell-based, Rhizopus oryzae; parameters: key to Interaction: S, synergistic interaction; A, antagonist interaction; Efficacy of Combined Drugs, E obs / Efficacy of Combined Drugs, E exp: concentration or dose not given beside the values; details: for Efficacy of Drugs Alone (% of Inhibition), MIC50: at MIC50; for Efficacy of Drugs Alone (% of Inhibition), ½ MIC50: at ½ MIC50; for ΔE: Eobs minus Eexp; for Efficacy of Combined Drugs, E exp: expected by Bliss calculation
Description: Synergistic interactions were evaluated using the checkerboard method according to EUCAST guidelines (EUCAST 2008). R. oryzae conidia (2 × 10^5/mL) were grown in 96-well plates containing supplemented RPMI in the presence of the following selected compounds: […] An inhibition of at least 50% was defined as the cut-off for minimum inhibitory concentration (MIC). Interactions were determined by the fractional inhibitory concentration index (FICI), which was calculated using the following formula: (MIC combined/MIC drug A alone) + (MIC combined/MIC drug B alone). […] The Bliss independence model calculation was performed according to […] colleagues and Zhao and colleagues. The following formula was used to assess drug interaction: […] The results were classified as follows: synergistic effect when Eobs > Eexp; indifference when Eobs = Eexp; antagonistic effect when Eobs < Eexp.

[10] = test system: R. stolonifer biofilm; assay: Biofilm formation assay; assay type: cell-based, Rhizopus stolonifer
Description: (§3) Biofilm formation assay was performed according to Rollin-Pinheiro and colleagues. Biofilms were grown on the surface of sterile polystyrene microplates (96-well). Briefly, serial dilutions of selected compounds were prepared in RPMI 1640 medium (8–¼× MIC) and deposited in 100 µL aliquots in microplate wells. Subsequently, 100 µL containing 10^5 Rhizopus conidia in RPMI 1640 medium was added to each well and incubated for 48 h at 37 °C.
as §2

[11] = test system: HUVEC; parameters: method as in PMID 30381356; details: cited from earlier work
[12] = test system: R. oryzae biofilm; assay: Biofilm formation assay; assay type: cell-based, Rhizopus oryzae; details: at MIC
Description: as §3, §2

[13] = test system: R. microsporus biofilm; assay: Biofilm formation assay; assay type: cell-based, Rhizopus microsporus; details: at MIC
Description: as §3, §2

[14] = test system: R. oryzae, R. microsporus and R. stolonifer biofilm formation; assay: Biofilm formation assay, stated over the three species; assay type: cell-based, Rhizopus species
Description: as §3, §2

[15] = test system: A549 cells; parameters: method as in PMID 30381356; details: cited from earlier work
[16] = test system: Staphylococcus aureus, Balamuthia mandrillaris, C. albicans, C. glabrata and C. auris; parameters: method as in PMID 23375226, PMID 24568657, PMID 32560115, PMID 22347365; details: for all of the listed species; cited from earlier work

Row | MIC50 [4] [µM] | MIC50 [8] [µM] | Efficacy of Drugs Alone (% of Inhibition), MIC50 [9] | Efficacy of Drugs Alone (% of Inhibition), ½ MIC50 [9] | SMILES | Selectivity Index (SI), Planktonic Cell [4] | MFC [4] [µM] | IC50 [5] [µM] | Selectivity Index (SI), Planktonic Cell [8] | MFC [8] [µM] | Efficacy of Combined Drugs, E obs ([9]; combined with Amphotericin B) [%] | Interaction ([9]; combined with Amphotericin B) | ΔE ([9]; combined with Amphotericin B) [%] | Efficacy of Combined Drugs, E exp ([9]; combined with Amphotericin B) [%] | Efficacy of Combined Drugs, E obs ([9]; combined with Posaconazole) [%] | Interaction ([9]; combined with Posaconazole) | ΔE ([9]; combined with Posaconazole) [%] | Efficacy of Combined Drugs, E exp ([9]; combined with Posaconazole) [%] | other results
1 | 1.25 (≈ 0.562 µg/mL) | 0.63 (≈ 0.283 µg/mL) | 62.0 % of Inhibition | 32.5 % of Inhibition | Oc1c(C(Nc2nc3ccccc3s2)c2ccc(OC(F)F)cc2)ccc2cccnc12 (stereo not shown) [MMV019724] | >40 | > 20 | 6.2 | >79.4 | > 20 | 74.8 | A | −7.3 | 82.1 | 58.0 | A | −5.6 | 63.6 | concentration that inhibits 50% [1]: 0.25 µM; concentration able to inhibit 90% of growth [2]: 2.5 µM; concentration that inhibits 50% [3]: 1 µM; Selectivity Index (SI), Preformed Biofilm [6]: >10; concentration able to inhibit 90% of growth [7]: 5 µM
2 | 0.63 (≈ 0.321 µg/mL) | 1.25 (≈ 0.636 µg/mL) | 67.6 % of Inhibition | 21.5 % of Inhibition | CCCCC(CC)CNC(=N)NC(=N)NCCCCCCNC(=N)NC(=N)NCC(CC)CCCC (stereo not shown) [MMV396785, Alexidine, reference compound] |  | 10 (≈ 5.09 µg/mL) |  |  | 10 (≈ 5.09 µg/mL) | 85.9 | S | 1.7 | 84.2 | 91.9 | A | −4.7 | 96.6 | concentration giving reduction in biofilm parameters [10]: ≥ 2 × MIC; Selectivity Index (SI), Planktonic Cell ([4]; listed as Alexidina MMV396785): >79.4; concentration that damaged cells [11]: 14.7 µg/mL and 28.89 µM; biofilm biomass, extracellular matrix and viability decreased to [12]: 25%; biofilm biomass, extracellular matrix and viability decreased to [13]: 25%; Selectivity Index (SI), Preformed Biofilm ([6]; listed as Alexidina MMV396785): >20; concentration giving significant decrease in biofilm parameters ([6]; preformed biofilm, 24 h treatment): 2 × MIC; inhibition of biofilm formation (total biomass, matrix and viability) [14]: ~100%; Selectivity Index (SI), Planktonic Cell ([8]; listed as Alexidina MMV396785): >40; concentration that damaged cells [15]: 14.7 µg/mL and 28.89 µM

Row | SMILES | MIC50 [4] [µM] | MIC50 [8] [µM] | Efficacy of Drugs Alone (% of Inhibition), MIC50 [9] | Efficacy of Drugs Alone (% of Inhibition), ½ MIC50 [9] | Selectivity Index (SI), Planktonic Cell [4] | MFC [4] [µM] | IC50 [5] [µM] | Selectivity Index (SI), Planktonic Cell [8] | MFC [8] [µM] | Efficacy of Combined Drugs, E obs ([9]; combined with Amphotericin B) [%] | Interaction ([9]; combined with Amphotericin B) | ΔE ([9]; combined with Amphotericin B) [%] | Efficacy of Combined Drugs, E exp ([9]; combined with Amphotericin B) [%] | Efficacy of Combined Drugs, E obs ([9]; combined with Posaconazole) [%] | Interaction ([9]; combined with Posaconazole) | ΔE ([9]; combined with Posaconazole) [%] | Efficacy of Combined Drugs, E exp ([9]; combined with Posaconazole) [%] | other results
3 | CCc1nc(N)nc(N)c1C#CC(C)c1cc(OC)cc(-c2ccncc2)c1 (stereo not shown) [MMV1580844] | 0.08 (≈ 0.0299 µg/mL) | 0.08 (≈ 0.0299 µg/mL) | 63.5 % of Inhibition | 12.6 % of Inhibition | >625 | > 20 | > 10 | >625 | > 20 | 60.5 | S | 2.3 | 58.2 | 60.2 | A | −17.4 | 77.6 | MIC [16]: lower than 100 nM
